Measurements as given in article PMC7033671 (ACS Omega, 2020).

What was measured:
KCL22-IR = test: CellTiter-Blue cell viability, KCL22-IR; assay type: cell-based, human; details: for IC50: Homo sapiens, 72 h, read-out: IC50 against KCL22-IR
KCL22 = test: CellTiter-Blue cell viability, KCL22; assay type: cell-based, human; details: for IC50: Homo sapiens, KCL-22, 72 h, read-out: IC50 against KCL22
K562 = test: CellTiter-Blue cell viability, K562; assay type: cell-based, human; details: for IC50: Homo sapiens, K562, 72 h, read-out: IC50 against K562
FLT3 (ITD) = target: T1, FLT3 (ITD) (Homo sapiens, UniProt P36888, ITD); test: Reaction Biology 33P-ATP kinase assay, FLT3; details: read-out: inhibition against FLT3(ITD)
T1 sequence (P36888 564-993): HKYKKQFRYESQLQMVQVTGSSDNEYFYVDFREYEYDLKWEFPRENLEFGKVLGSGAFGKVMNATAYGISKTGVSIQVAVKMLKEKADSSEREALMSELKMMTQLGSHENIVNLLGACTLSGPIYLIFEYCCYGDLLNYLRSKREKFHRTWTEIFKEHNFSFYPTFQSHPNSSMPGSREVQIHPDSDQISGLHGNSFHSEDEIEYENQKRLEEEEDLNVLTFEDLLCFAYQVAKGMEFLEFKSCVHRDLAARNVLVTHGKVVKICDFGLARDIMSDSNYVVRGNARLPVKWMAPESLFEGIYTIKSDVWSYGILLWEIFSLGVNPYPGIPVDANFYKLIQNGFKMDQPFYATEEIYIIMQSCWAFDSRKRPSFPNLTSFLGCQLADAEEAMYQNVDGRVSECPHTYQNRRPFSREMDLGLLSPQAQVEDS

ABL1 (T315I) = ABL1 (T315I) (Homo sapiens, UniProt P00519, T315I); test: Reaction Biology 33P-ATP kinase assay, ABL1; details: read-out: inhibition against ABL1(T315I)
MNK2 = MNK2 (Homo sapiens, UniProt Q9HBH9); test: biochemical; details: read-out: inhibition of MNK2
c-SRC = c-SRC (Homo sapiens, UniProt P12931); test: Reaction Biology 33P-ATP kinase assay, c-SRC; details: read-out: inhibition against c-Src
FLT3 (D835Y) = target: T2, FLT3 (D835Y) (Homo sapiens, UniProt P36888, D835Y); test: Reaction Biology 33P-ATP kinase assay, FLT3; details: read-out: inhibition against FLT3(D835Y)
T2 sequence (P36888 27-993 D835Y): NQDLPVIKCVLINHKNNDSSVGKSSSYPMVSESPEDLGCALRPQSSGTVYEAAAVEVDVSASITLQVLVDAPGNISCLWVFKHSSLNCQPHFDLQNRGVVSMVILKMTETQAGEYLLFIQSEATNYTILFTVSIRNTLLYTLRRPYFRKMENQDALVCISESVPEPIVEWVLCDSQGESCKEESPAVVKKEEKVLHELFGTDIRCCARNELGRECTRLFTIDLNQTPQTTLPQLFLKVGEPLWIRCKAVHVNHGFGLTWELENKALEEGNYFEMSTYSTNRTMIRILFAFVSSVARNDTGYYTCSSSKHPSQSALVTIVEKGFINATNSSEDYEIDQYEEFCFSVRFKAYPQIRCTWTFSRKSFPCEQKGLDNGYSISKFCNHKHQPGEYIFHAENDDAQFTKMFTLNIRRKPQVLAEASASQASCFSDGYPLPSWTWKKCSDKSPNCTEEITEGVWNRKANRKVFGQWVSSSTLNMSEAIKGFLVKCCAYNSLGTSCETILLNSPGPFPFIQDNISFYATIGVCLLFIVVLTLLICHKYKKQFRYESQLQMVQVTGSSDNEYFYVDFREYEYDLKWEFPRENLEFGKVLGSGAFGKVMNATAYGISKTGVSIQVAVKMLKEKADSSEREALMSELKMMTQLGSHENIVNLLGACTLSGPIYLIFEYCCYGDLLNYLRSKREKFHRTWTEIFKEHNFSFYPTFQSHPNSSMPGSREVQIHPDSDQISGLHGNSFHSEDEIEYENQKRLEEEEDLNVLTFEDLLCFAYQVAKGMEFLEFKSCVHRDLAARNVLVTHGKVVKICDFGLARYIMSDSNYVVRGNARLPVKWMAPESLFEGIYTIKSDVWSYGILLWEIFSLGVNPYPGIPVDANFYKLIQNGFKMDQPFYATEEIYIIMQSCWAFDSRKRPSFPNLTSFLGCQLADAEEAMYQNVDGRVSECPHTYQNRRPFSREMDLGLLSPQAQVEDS

c-Kit = c-Kit (Homo sapiens, UniProt P10721); test: Reaction Biology 33P-ATP kinase assay, c-Kit; assay type: biochemical
MOLM14 = test: CellTiter-Blue cell viability, MOLM14; assay type: cell-based; details: Homo sapiens, MOLM-14, 72 h, read-out: IC50 against MOLM14
MOLM14-F691L = test: CellTiter-Blue cell viability, MOLM14-F691L; assay type: cell-based; details: Homo sapiens, MOLM-14, 72 h, read-out: IC50 against MOLM14-F691L
MOLM13-res = test: CellTiter-Blue cell viability, MOLM13-res; assay type: cell-based; details: Homo sapiens, 72 h, read-out: IC50 against MOLM13-res
LC2/Ad = test: CellTiter-Blue cell viability, LC2/Ad; assay type: cell-based; details: Homo sapiens, LC-2-ad, 72 h, read-out: IC50 against LC2/Ad
MV-4-11 = test: CellTiter-Blue cell viability, MV-4-11; assay type: cell-based; details: Homo sapiens, MV4-11, 72 h, read-out: IC50 against MV-4-11
H520 = test: CellTiter-Blue cell viability, H520; assay type: cell-based; details: Homo sapiens, NCI-H520, 72 h, read-out: IC50 against H520
MOLM14-D835Y = test: CellTiter-Blue cell viability, MOLM14-D835Y; assay type: cell-based; details: Homo sapiens, 72 h, read-out: IC50 against MOLM14-D835Y

Chain of MNK2 (Q9HBH9 whole entry): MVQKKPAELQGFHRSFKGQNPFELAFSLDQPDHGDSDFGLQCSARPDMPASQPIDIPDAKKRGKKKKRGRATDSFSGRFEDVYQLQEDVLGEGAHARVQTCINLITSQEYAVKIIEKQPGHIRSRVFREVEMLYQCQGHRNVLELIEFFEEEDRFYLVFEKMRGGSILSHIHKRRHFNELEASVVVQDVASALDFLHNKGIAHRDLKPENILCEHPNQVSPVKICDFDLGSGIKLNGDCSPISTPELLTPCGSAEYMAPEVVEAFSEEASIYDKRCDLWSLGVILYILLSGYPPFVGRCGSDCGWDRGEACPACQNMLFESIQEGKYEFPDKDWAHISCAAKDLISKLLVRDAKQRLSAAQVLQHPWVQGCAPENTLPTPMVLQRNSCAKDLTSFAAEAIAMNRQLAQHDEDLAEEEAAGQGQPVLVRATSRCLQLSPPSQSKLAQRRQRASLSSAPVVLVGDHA
Chain of c-SRC (P12931 whole entry): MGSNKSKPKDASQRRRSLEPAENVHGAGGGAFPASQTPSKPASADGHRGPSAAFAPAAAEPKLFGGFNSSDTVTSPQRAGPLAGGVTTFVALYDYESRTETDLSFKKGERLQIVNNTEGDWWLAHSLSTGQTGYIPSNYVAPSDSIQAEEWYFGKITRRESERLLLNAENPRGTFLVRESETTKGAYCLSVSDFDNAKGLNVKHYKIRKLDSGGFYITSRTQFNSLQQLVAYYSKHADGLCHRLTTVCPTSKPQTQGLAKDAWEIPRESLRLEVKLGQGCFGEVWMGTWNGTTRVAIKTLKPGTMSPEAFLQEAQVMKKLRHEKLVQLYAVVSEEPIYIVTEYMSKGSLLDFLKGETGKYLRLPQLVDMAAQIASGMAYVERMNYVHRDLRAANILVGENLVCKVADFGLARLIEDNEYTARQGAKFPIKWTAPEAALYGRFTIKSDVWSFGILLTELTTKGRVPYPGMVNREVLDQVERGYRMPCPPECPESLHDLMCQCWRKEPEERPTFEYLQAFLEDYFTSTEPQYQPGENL
Chain of c-Kit (P10721 26-976): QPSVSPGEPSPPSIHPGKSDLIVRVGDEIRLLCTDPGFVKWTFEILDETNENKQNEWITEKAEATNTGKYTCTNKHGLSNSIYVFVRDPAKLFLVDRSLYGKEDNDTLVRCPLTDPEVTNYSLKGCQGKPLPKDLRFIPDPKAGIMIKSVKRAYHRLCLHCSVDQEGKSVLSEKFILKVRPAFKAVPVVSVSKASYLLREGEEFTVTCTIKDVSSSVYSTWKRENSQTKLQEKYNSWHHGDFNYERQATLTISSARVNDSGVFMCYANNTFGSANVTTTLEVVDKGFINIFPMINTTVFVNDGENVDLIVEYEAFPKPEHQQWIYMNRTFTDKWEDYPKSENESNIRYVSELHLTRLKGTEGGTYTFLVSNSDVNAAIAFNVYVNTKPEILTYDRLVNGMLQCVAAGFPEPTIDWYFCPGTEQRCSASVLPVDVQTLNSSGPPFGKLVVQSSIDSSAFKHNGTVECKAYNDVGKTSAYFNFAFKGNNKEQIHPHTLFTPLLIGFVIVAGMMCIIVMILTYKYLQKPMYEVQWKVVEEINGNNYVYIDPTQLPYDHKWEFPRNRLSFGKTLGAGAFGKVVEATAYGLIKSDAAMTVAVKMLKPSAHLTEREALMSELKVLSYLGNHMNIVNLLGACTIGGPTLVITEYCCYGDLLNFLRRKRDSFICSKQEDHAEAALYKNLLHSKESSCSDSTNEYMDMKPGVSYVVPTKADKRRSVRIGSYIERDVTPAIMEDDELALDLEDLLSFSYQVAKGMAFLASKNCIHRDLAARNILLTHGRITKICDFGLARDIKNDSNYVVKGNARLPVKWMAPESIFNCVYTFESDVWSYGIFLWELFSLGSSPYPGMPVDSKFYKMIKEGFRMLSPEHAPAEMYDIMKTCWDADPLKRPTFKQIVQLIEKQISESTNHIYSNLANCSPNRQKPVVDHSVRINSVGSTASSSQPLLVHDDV

| SMILES | IC50 (K562) | IC50 (KCL22-IR) | IC50 (KCL22) | inhibition at 0.004 µM (FLT3 (ITD)) | inhibition at 0.123 µM (MNK2) | inhibition at 0.111 µM (c-SRC) | also measured |
| --- | --- | --- | --- | --- | --- | --- | --- |
| CN1CCN(Cc2ccc(C(=O)Nc3cncc(C#Cc4cnc5cccnn45)c3)cc2C(F)(F)F)CC1 [HSL338, N-(5-(Imidazo[1,2-b]pyridazin-3-ylethynyl)pyridin-3-yl)-4-((4-methylpiperazin-1-yl)methyl)-3-(trifluoromethyl)benzamide] | 0.45 ± 0.002 nM | 4.24 ± 0.05 nM | 1.4 ± 0.02 nM | 84% |  |  |  |
| CN1CCN(Cc2ccc(NC(=O)c3cncc(C#Cc4cnc5ccccn45)c3)cc2C(F)(F)F)CC1 [HSL381, 5-(Imidazo[1,2-a]pyridin-3-ylethynyl)-N-(4-((4-methylpiperazin-1-yl)methyl)-3-(trifluoromethyl)phenyl)nicotinamide] | 0.57 ± 0.003 nM | 4.24 ± 0.05 nM | 0.89 ± 0.005 nM | 91% | 84% |  | inhibition at 0.123 µM (ABL1 (T315I)): 73% |
| CN1CCN(Cc2ccc(NC(=O)c3cncc(C#Cc4cnc5ncccn45)c3)cc2C(F)(F)F)CC1 [HSL382, 5-(Imidazo[1,2-a]pyrimidin-3-ylethynyl)-N-(4-((4-methylpiperazin-1-yl)methyl)-3-(trifluoromethyl)phenyl)nicotinamide] |  | > 100 nM | > 100 nM |  |  |  | IC50 against KCL22-IR (KCL22-IR; imatinib-resistant CML line, 72 h treatment): inactive; IC50 against KCL22 (KCL22; CML cell line, 72 h treatment): inactive; IC50 against K562 (K562; CML cell line (ABL1), 72 h treatment): inactive |
| CN1CCN(Cc2ccc(NC(=O)c3cncc(C#Cc4cnc5cccnn45)c3)cc2C(F)(F)F)CC1 [HSN748, 5-(Imidazo[1,2-b]pyridazin-3-ylethynyl)-N-(4-((4-methylpiperazin-1-yl)methyl)-3-(trifluoromethyl)phenyl)nicotinamide] |  |  |  | 86% | 85% | < 10% | inhibition at 0.111 µM (FLT3 (D835Y)): 87%; IC50 (c-Kit): 96 ± 4.21 nM; IC50 (MOLM14): 0.25 nM |
| Cc1ccc(C(=O)Nc2ccc(CN3CCN(C)CC3)c(C(F)(F)F)c2)cc1C#Cc1cnc2cccnn12 [ponatinib, reference compound] | 0.6 ± 0.002 nM | 0.66 ± 0.005 nM | 0.14 ± 0.003 nM | < 40% | 32% | 98% | IC50 (MOLM14-F691L): 6.8 nM; IC50 (MOLM13-res): 24.1 nM; IC50 (LC2/Ad): 35.1 nM; IC50 (MV-4-11): 0.09 nM; IC50 (H520): 128 nM; IC50 (MOLM14): 0.45 nM; IC50 (MOLM14-D835Y): 52.6 nM |

Second part, led by results:

| IC50 (K562) | SMILES | IC50 (KCL22-IR) | IC50 (KCL22) | inhibition at 0.004 µM (FLT3 (ITD)) | inhibition at 0.123 µM (MNK2) | inhibition at 0.111 µM (c-SRC) | also measured |
| --- | --- | --- | --- | --- | --- | --- | --- |
| 0.26 ± 0.002 nM | CN1CCN(Cc2ccc(NC(=O)c3cccc(C#Cc4cnc5cccnn45)c3)cc2C(F)(F)F)CC1 [HSL331, 3-(Imidazo[1,2-b]pyridazin-3-ylethynyl)-N-(4-((4-methylpiperazin-1-yl)methyl)-3-(trifluoromethyl)phenyl)benzamide] | 2.86 ± 0.04 nM | 0.63 ± 0.002 nM |  |  |  |  |
| 0.94 ± 0.002 nM | CN1CCN(Cc2ccc(NC(=O)c3cncc(C#Cc4cnc5cnccn45)c3)cc2C(F)(F)F)CC1 [HSL385, 5-(Imidazo[1,2-a]pyrazin-3-ylethynyl)-N-(4-((4-methylpiperazin-1-yl)methyl)-3-(trifluoromethyl)phenyl)nicotinamide] | 17.2 ± 0.86 nM | 2.62 ± 0.06 nM |  | 72% |  |  |
| 1.83 ± 0.02 nM | CN1CCN(Cc2ccc(NC(=O)c3cncc(C#Cc4cncc5nccn45)c3)cc2C(F)(F)F)CC1 [HSL407, 5-(Imidazo[1,2-a]pyrazin-5-ylethynyl)-N-(4-((4-methylpiperazin-1-yl)methyl)-3-(trifluoromethyl)phenyl)nicotinamide] | 49.7 ± 2.5 nM | 2.93 ± 0.04 nM |  |  |  |  |
| 28.1 ± 0.6 nM | CN1CCN(Cc2ccc(NC(=O)c3cncc(C#Cc4cnc5ccnn5c4)c3)cc2C(F)(F)F)CC1 [HSL412, N-(4-((4-Methylpiperazin-1-yl)methyl)-3-(trifluoromethyl)phenyl)-5-(pyrazolo[1,5-a]pyrimidin-6-ylethynyl)nicotinamide] | > 100 nM | 28.1 ± 0.37 nM |  |  |  |  |
| 0.06 ± 0.002 nM | Cc1ncc(C(=O)Nc2ccc(CN3CCN(C)CC3)c(C(F)(F)F)c2)cc1C#Cc1cnc2cccnn12 [HSL420, 5-(Imidazo[1,2-b]pyridazin-3-ylethynyl)-6-methyl-N-(4-((4-methylpiperazin-1-yl)methyl)-3-(trifluoromethyl)phenyl)nicotinamide] | 0.46 ± 0.01 nM | 0.06 ± 0.002 nM |  |  | 32% | inhibition at 0.123 µM (ABL1 (T315I)): 83% |
